{"source": "patent US7247427B1", "about": "“Leptin assay” (Yeda Research and Development Co., Ltd., priority 1999, dated 2007)", "origin": "cited, not measured here", "tested_on": "cultured adipocytes", "conditions": "no Angiopoietin-2 expressed in the absence of leptin"}
{"substance": "leptin: the product of the obese gene, expressed in adipocytes; regulates food intake and energy metabolism through its receptor OB-R", "values": [{"measurement": "expression of the angiopoietin-2 gene", "result": "specifically induces the expression of the angiopoietin-2 gene"}]}
